Legend:
[1] = biological target: T1, Cytochrome P450 11B1, mitochondrial (Homo sapiens, UniProt P15538); test: Inhibition of human CYP11B1; type: ADME
T1 sequence (P15538 whole entry): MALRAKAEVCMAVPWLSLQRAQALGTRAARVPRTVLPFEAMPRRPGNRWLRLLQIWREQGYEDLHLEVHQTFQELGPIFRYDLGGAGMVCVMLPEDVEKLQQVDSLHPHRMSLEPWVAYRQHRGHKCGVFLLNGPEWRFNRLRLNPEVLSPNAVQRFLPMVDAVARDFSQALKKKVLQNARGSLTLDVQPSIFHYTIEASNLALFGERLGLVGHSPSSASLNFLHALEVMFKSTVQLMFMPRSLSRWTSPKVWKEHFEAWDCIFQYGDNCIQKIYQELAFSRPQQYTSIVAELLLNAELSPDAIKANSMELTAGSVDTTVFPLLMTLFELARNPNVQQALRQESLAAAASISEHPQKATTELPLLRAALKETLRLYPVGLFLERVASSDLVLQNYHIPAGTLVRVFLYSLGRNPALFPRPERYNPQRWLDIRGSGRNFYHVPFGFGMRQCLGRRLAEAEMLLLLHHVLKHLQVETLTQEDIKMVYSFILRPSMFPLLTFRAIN

[2] = Metabolic stability in mouse liver microsome assessed as half-life; type: ADME; conditions: liver microsomes
[3] = biological target: T2, Steroid 17-alpha-hydroxylase/17,20 lyase (Homo sapiens, UniProt P05093); test: Inhibition of human CYP17A1 hydroxylase activity; type: ADME
T2 sequence (P05093 whole entry): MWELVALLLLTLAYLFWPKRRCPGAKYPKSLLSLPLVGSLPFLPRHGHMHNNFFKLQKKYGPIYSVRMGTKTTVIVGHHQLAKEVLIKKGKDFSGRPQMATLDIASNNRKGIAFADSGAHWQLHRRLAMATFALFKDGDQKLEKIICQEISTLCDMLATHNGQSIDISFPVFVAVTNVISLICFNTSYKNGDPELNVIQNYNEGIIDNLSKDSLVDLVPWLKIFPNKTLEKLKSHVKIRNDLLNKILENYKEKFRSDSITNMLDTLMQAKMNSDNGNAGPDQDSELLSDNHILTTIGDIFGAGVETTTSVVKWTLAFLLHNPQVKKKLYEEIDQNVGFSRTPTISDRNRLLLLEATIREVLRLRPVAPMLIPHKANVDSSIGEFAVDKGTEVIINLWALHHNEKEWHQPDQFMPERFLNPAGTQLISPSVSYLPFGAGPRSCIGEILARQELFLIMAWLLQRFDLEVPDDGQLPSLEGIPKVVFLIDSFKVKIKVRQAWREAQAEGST

[4] = biological target: T3, Steroid 17-alpha-hydroxylase/17,20 lyase (Macaca fascicularis, UniProt Q2XVA1); test: In vivo inhibition of CYP17A1 in cynomolgus monkey assessed as fold increase in progesterone level in blood at 1 mg/kg, po measured upto 24 hrs; type: functional, organism-based
T3 sequence (Q2XVA1 whole entry): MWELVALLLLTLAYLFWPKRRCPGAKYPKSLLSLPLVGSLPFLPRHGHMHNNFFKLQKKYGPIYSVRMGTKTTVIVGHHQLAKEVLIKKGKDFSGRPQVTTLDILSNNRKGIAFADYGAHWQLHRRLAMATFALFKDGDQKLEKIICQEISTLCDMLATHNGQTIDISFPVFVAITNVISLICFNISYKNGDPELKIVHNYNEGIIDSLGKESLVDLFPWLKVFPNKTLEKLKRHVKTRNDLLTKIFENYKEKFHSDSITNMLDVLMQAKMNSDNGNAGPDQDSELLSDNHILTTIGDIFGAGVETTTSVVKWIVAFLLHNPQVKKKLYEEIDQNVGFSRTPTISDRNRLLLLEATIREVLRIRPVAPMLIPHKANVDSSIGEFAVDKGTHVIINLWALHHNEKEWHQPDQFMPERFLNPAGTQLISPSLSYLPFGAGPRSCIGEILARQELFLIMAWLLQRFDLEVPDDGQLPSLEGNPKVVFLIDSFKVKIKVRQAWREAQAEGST

[5] = Cmax in cynomolgus monkey at 1 mg/kg, po; type: ADME, organism-based, Macaca fascicularis; set-up: dose 1 mg/kg, route po; conditions: in vivo
[6] = Permeability across basolateral to apical side in human Caco-2 cells; type: ADME, cell-based; conditions: read-out: permeability
[7] = biological target: Cytochrome P450 3A4 (Homo sapiens, UniProt P08684); test: Inhibition of recombinant human CYP3A4; type: ADME
[8] = biological target: T3, Steroid 17-alpha-hydroxylase/17,20 lyase; test: In vivo inhibition of CYP17A1 in cynomolgus monkey assessed as decrease in testosterone level in blood at 1 mg/kg, po measured at 8 hrs; type: functional, organism-based
[9] = biological target: T3, Steroid 17-alpha-hydroxylase/17,20 lyase; test: Inhibition of cynomolgus monkey CYP17A1; type: ADME
[10] = biological target: T3, Steroid 17-alpha-hydroxylase/17,20 lyase; test: Inhibition of cynomolgus monkey CYP17A1 lyase activity; type: ADME
[11] = Metabolic stability in cynomolgus monkey liver microsomes assessed as parent compound remaining relative to control; type: ADME, Macaca fascicularis, Microsome
[12] = Oral bioavailability in cynomolgus monkey at 1 mg/kg; type: ADME, organism-based, Macaca fascicularis; conditions: in vivo
[13] = Metabolic stability in cynomolgus monkey liver microsome assessed as half-life; type: ADME, Macaca fascicularis; conditions: liver microsomes
[14] = Volume of distribution at steady state in cynomolgus monkey at 1 mg/kg, iv; type: ADME, organism-based, Macaca fascicularis; conditions: in vivo, read-out: Vdss
[15] = biological target: T3, Steroid 17-alpha-hydroxylase/17,20 lyase; test: In vivo inhibition of CYP17A1 in cynomolgus monkey assessed as decrease in testosterone level in blood at 1 mg/kg, po measured upto 24 hrs relative to control; type: functional, organism-based; set-up: scale not given: the % may be the effect or the level left
[16] = biological target: T3, Steroid 17-alpha-hydroxylase/17,20 lyase; test: In vivo inhibition of CYP17A1 in cynomolgus monkey assessed as increase in progesterone level in blood at 1 mg/kg, po measured at 4 hrs; type: functional, organism-based
[17] = biological target: T4, Cytochrome P450 1A2 (Homo sapiens, UniProt P05177); test: Inhibition of recombinant human CYP1A2; type: ADME
T4 sequence (P05177 whole entry): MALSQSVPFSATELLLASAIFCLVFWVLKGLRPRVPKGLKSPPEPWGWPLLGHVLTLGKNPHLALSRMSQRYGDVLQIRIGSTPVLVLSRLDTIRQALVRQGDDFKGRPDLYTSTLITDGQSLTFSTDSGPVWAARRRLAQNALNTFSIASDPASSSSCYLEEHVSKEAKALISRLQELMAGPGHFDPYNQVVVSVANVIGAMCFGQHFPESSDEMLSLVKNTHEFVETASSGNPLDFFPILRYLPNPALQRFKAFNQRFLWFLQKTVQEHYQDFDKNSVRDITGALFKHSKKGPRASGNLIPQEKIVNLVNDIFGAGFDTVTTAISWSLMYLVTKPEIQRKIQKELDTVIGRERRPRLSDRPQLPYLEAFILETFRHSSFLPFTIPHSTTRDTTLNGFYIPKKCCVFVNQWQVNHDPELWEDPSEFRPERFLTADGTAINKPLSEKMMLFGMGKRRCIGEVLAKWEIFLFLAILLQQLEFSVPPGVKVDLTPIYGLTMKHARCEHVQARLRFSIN

[18] = Permeability across apical to basolateral side in human Caco-2 cells; type: ADME, cell-based; conditions: read-out: permeability
[19] = biological target: T2, Steroid 17-alpha-hydroxylase/17,20 lyase; test: Inhibition of human adrenal gland CYP17A1; type: ADME, tissue-based
[20] = biological target: T2, Steroid 17-alpha-hydroxylase/17,20 lyase; test: Inhibition of human CYP17A1 lyase activity; type: ADME

Sequence of Cytochrome P450 3A4 (P08684 whole entry): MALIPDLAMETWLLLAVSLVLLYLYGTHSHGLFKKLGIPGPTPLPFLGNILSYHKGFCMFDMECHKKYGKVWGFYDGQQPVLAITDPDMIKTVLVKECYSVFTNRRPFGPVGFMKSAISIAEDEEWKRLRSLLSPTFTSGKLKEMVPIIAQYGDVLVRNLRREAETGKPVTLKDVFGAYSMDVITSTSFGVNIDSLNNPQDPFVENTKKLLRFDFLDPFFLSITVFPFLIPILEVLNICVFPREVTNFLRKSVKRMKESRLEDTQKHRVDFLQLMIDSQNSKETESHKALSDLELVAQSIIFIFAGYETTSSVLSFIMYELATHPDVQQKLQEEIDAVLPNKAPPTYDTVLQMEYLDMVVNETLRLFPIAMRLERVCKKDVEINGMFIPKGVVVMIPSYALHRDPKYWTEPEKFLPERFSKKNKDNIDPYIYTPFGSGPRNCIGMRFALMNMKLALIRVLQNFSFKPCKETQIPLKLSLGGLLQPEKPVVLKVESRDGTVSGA

- IC50 [1]: 2610 nM
- half-life [2]: 35 min
- IC50 [3]: 91 nM
- fold change (FC) [4]: 14
- Cmax [5]: 1550 nM
- Papp B→A [6]: 21.2 ×10⁻⁶ cm/s
- IC50 [7]: 36000 nM
- Activity [8]: 43 ng/dL
- IC50 [9]: 2 nM
- IC50 [10]: 6 nM
- Stability [11]: 96%
- bioavailability [12]: 100%
- half-life [13]: > 120 min
- Vd [14]: 3.5 L/kg
- Activity [15]: 83%
- Activity [16]: 27 ng/dL
- IC50 [17]: > 40000 nM
- Papp A→B [18]: 28.2 ×10⁻⁶ cm/s
- IC50 [19]: 30 nM
- IC50 [20]: 8 nM
SMILES: Nc1ncncc1-c1ccnc2c1cnn2-c1ccc(F)cc1
